Each compound was assayed against T1, ΔF508-CFTR stably expressed in NIH3T3 cells (Homo sapiens, UniProt P13569, DEL508-508) (assay: Membrane potential optical (FRET/VIPR) assay for ΔF508-CFTR potentiation). Conditions: NIH3T3, read-out: % Efficacy (relative modulating efficacy in comparison with genistein), normalized to peak genistein response.
T1 construct: expressed in transfected cells
Assay type: cell-based
From the text: Membrane potential optical methods for assaying ΔF508-CFTR potentiation properties of compounds.
These voltage sensitive assays are based on the change in fluorescence resonant energy transfer (FRET) between the membrane-soluble, voltage-sensitive dye, DiSBAC2(3), and a fluorescent phospholipid, CC2-DMPE, which is attached to the outer leaflet of the plasma membrane and acts as a FRET donor. Changes in membrane potential (Vm) cause the negatively charged DiSBAC2(3) to redistribute across the plasma membrane and the amount of energy transfer from CC2-DMPE changes accordingly. The changes in fluorescence emission were monitored using VIPR™ II, which is an integrated liquid handler and fluorescent detector designed to conduct cell-based screens in 96- or 384-well microtiter plates.
To identify potentiators of ΔF508-CFTR, a double-addition HTS assay format was developed (FIG. 1A). During the first addition, a Cl^−-free medium with or without test compound was added to each well. After 22 sec, a second addition of Cl^−-free medium containing 2-10 μM forskolin was added to activate ΔF508-CFTR. The extracellular Cl^− concentration following both additions was 28 mM, which promoted Cl^− efflux in response to ΔF508-CFTR activation and the resulting membrane depolarization was optically monitored using the FRET-based voltage-sensor dyes. The double-addition format has several advantages. First, it enables separation of compounds that act independently of forskolin-activated ΔF508-CFTR. Second, it allows compounds that act from the cytoplasmic surface of the channel to cross the plasma membrane and take effect. Lastly, fluorescent changes that arise from test compound addition alone can be identified.
High-throughput assay format for identifying potentiators of ΔF508-CFTR stably expressed in NIH3T3 cells.
FIG. 1A: Double-addition assay format in which Cl^−-free medium was added with or without the test compound prior to forskolin addition. The cells were incubated at 27° C. for 16-24 hr prior to use.
• Bath Solution #1: (in mM)NaCl 160, KCl 4.5, CaCl2 2, MgCl2 1, HEPES 10, pH 7.4 with NaOH. • Chloride-free bath solution: Chloride salts in Bath Solution #1 are substituted with gluconate salts. • CC2-DMPE: Prepared as a 10 mM stock solution in DMSO and stored at −20° C. • DiSBAC2(3): Prepared as a 10 mM stock in DMSO and stored at −20° C.
NIH3T3 mouse fibroblasts stably expressing ΔF508-CFTR are used for optical measurements of membrane potential. The cells are maintained at 37° C. in 5% CO2 and 90% humidity in Dulbecco's modified Eagle's medium supplemented with 2 mM glutamine, 10% fetal bovine serum, 1×NEAA, β-ME, 1×pen/strep, and 25 mM HEPES in 175 cm^2 culture flasks. For all optical assays, the cells were seeded at 30,000/well in 384-well matrigel-coated plates and cultured for 2 hrs at 37° C. before culturing at 27° C. for 24 hrs.

T1 sequence (P13569 with tags, fused parts or gaps DEL508-508): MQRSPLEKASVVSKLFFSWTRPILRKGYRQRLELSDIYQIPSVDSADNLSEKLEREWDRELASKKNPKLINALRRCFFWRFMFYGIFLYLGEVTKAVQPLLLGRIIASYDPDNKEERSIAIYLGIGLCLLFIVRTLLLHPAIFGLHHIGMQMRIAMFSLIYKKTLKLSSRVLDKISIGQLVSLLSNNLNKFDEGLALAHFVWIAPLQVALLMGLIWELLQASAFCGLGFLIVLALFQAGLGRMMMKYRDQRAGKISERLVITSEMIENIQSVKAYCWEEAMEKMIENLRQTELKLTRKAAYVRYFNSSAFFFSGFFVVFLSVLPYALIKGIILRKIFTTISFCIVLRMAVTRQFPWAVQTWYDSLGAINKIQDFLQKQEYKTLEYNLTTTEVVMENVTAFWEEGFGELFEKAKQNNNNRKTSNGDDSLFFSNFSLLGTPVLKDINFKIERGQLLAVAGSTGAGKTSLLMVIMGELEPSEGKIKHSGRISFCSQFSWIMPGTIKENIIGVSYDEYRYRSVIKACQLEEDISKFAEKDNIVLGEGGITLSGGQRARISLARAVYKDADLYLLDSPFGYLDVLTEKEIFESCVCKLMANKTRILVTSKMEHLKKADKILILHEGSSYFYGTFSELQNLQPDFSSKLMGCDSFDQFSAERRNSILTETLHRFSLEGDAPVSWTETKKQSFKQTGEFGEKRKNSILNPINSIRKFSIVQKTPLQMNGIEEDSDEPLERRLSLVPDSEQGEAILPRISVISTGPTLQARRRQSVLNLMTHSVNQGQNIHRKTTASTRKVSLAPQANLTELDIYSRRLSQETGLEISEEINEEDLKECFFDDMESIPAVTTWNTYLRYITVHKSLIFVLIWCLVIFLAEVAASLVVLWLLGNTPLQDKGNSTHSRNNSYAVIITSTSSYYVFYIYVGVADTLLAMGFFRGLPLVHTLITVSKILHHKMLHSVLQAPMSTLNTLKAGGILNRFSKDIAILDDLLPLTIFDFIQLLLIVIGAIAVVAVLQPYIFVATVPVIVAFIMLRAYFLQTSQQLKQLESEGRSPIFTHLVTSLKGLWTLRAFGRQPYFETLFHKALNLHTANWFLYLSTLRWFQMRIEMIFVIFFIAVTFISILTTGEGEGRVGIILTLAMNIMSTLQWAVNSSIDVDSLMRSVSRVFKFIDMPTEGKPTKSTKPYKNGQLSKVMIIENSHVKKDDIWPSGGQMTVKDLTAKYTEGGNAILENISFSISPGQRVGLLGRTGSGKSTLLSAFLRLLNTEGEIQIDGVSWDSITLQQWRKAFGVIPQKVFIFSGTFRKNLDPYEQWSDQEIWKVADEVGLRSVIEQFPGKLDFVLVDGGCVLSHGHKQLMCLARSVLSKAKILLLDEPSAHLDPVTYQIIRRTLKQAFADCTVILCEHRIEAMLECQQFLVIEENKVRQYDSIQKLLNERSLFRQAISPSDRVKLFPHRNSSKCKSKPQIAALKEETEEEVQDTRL

Structure (SMILES) | Emax [%]
CCCSc1ncccc1-c1cc(-c2ccccc2)n[nH]1 [I-5] | 35 to 75
Fc1ccccc1-c1cc(-c2ccccc2F)[nH]n1 [I-6] | 35 to 75
Fc1ccccc1-c1cc(-c2ccccc2Cl)[nH]n1 [I-7] | 35 to 75
Fc1ccccc1-c1cc(-c2cccc(Cl)c2)[nH]n1 [I-9] | 35 to 75
Fc1ccccc1-c1cc(-c2ccc3c(c2)OC(F)(F)O3)[nH]n1 [I-10] | 35 to 75
Fc1ccccc1-c1cc(-c2ccc(OC(F)(F)F)cc2)[nH]n1 [I-17] | 35 to 75
Cc1cccc(-c2cc(-c3ccccc3)n[nH]2)c1 [I-19] | 35 to 75
COc1ccc(-c2cc(-c3ccccc3O)n[nH]2)cc1OC [IA-1] | 35 to 75
Oc1ccccc1-c1cc(-c2ccc(F)cc2)[nH]n1 [IA-8] | 35 to 75
Cc1ccc(O)c(-c2cc(-c3ccc(OCc4ccccc4)cc3)n[nH]2)c1 [IA-10] | 35 to 75
COc1ccc(-c2cc(-c3ccccc3O)n[nH]2)cc1 [IA-11] | 35 to 75
CCCc1ccc(O)c(-c2cc(-c3ccccc3)[nH]n2)c1 [IA-14] | > 75
COc1ccc(O)c(-c2cc(-c3ccccc3)[nH]n2)c1 [IA-18] | 35 to 75
CC(C)c1ccc(O)c(-c2cc(-c3ccccc3)[nH]n2)c1 [IA-26] | > 75
Cc1ccc(O)c(-c2cc(-c3ccccc3-c3ccncc3)n[nH]2)c1 [IA-29] | 35 to 75
Cc1ccc(O)c(-c2cc(-c3ccccc3C#N)n[nH]2)c1 [IA-30] | 35 to 75
Oc1ccc(-c2cc(-c3ccccc3O)[nH]n2)cc1 [IA-33] | 35 to 75
Cc1ccc(O)c(-c2cc(-c3ccc(Br)cc3)[nH]n2)c1 [IA-35] | > 75

Structure (SMILES) | Emax [%]
Oc1cccc(-c2cc(-c3ccccc3O)[nH]n2)c1 [IA-43] | > 75
Cc1ccc(O)c(-c2cc(-c3ccc(F)c(Cl)c3)n[nH]2)c1 [IA-51] | 35 to 75
Cc1ccc(O)c(-c2cc(-c3cccc(C)c3C)n[nH]2)c1 [IA-53] | 35 to 75
COc1ccc(O)c(-c2cc(-c3ccccc3Cl)[nH]n2)c1 [IA-55] | 35 to 75
Cc1ccc(O)c(-c2cc(-c3c(F)ccc(C)c3F)n[nH]2)c1 [IA-56] | 35 to 75
Cc1ccc(-c2cc(-c3ccccc3Cl)[nH]n2)c(O)c1 [IA-58] | 35 to 75
Cc1ccc(-c2cc(-c3cc(C)ccc3O)n[nH]2)cc1 [IA-59] | 35 to 75
COc1ccc(O)c(-c2cc(-c3ccccc3C)[nH]n2)c1 [IA-62] | 35 to 75
Cc1ccc(O)c(-c2cc(-c3cc(C(F)(F)F)nn3-c3ccc([N+](=O)[O-])cc3)n[nH]2)c1 [IA-65] | 35 to 75
Oc1ccccc1-c1cc(-c2ccccc2Cl)[nH]n1 [IA-68] | 35 to 75
Cc1ccc(O)c(-c2cc(-c3cccc(C(F)(F)F)c3C)n[nH]2)c1 [IA-74] | 35 to 75
Cc1ccc(O)c(-c2cc(-c3ccc(-c4ccc(S(C)(=O)=O)cc4)o3)n[nH]2)c1 [IA-76] | 35 to 75
CCOc1ccccc1-c1cc(-c2cc(C)ccc2O)[nH]n1 [IA-80] | 35 to 75
Cc1ccc(O)c(-c2cc(-c3ccccc3Oc3ccccc3)n[nH]2)c1 [IA-84] | 35 to 75
Cc1ccc(O)c(-c2cc(-c3cccc([N+](=O)[O-])c3)n[nH]2)c1 [IA-87] | 35 to 75
Oc1ccc(Cl)cc1-c1cc(-c2ccc(F)cc2)[nH]n1 [IA-88] | 35 to 75
Cc1cc(-c2cc(-c3cc(F)ccc3O)n[nH]2)c(C(F)(F)F)o1 [IA-92] | 35 to 75

The next lines start with the values.

Emax [%] | Structure (SMILES)
35 to 75 | CCSc1ncccc1-c1cc(-c2ccccc2)n[nH]1 [I-3]
35 to 75 | Fc1ccccc1-c1cc(-c2ccccc2)n[nH]1 [I-4]
35 to 75 | c1ccc(-c2cc(-c3cccc4c3OCO4)[nH]n2)cc1 [I-15]
35 to 75 | FC(F)(F)Oc1ccc(-c2cc(-c3ccccc3)n[nH]2)cc1 [I-16]
35 to 75 | Fc1ccccc1-c1cc(-c2cccc(OC(F)(F)F)c2)[nH]n1 [I-18]
35 to 75 | COc1ccc(O)c(-c2cc(-c3ccc(F)cc3)[nH]n2)c1 [IA-2]
35 to 75 | COc1cccc(O)c1-c1cc(-c2ccccc2)n[nH]1 [IA-3]
> 75 | Cc1ccc(O)c(-c2cc(-c3ccccc3[N+](=O)[O-])[nH]n2)c1 [IA-5]
> 75 | Oc1ccc(F)cc1-c1cc(-c2ccccc2C(F)(F)F)[nH]n1 [IA-6]
35 to 75 | Cc1ccc(O)c(-c2cc(-c3ccc(-c4cccc(C(F)(F)F)c4)o3)n[nH]2)c1 [IA-7]
35 to 75 | COc1ccc(O)c(-c2cc(-c3ccccc3C(F)(F)F)n[nH]2)c1 [IA-16]
35 to 75 | Cc1ccc(O)c(-c2cc(-c3ccc(C(F)(F)F)c(C)c3)n[nH]2)c1 [IA-17]
35 to 75 | Oc1ccc(Cl)cc1-c1cc(-c2ccccc2)[nH]n1 [IA-19]
> 75 | O=[N+]([O-])c1ccccc1-c1cc(-c2cc(F)ccc2O)[nH]n1 [IA-20]
35 to 75 | Oc1ccc(F)cc1-c1cc(-c2ccccc2)n[nH]1 [IA-21]
35 to 75 | COc1ccc(-c2cc(-c3cc(C)ccc3O)n[nH]2)cc1 [IA-22]
35 to 75 | Cc1ccccc1-c1cc(-c2ccccc2O)n[nH]1 [IA-24]
35 to 75 | Cc1ccc(O)c(-c2cc(-c3ccc4c(c3)OCO4)n[nH]2)c1 [IA-25]
35 to 75 | Cc1ccc(O)c(-c2cc(-c3cccnc3)n[nH]2)c1 [IA-27, 4-Methyl-2-(5-pyridin-3-yl-1H-pyrazol-3-yl)phenol]
> 75 | Cc1ccc(O)c(-c2cc(-c3cccs3)n[nH]2)c1 [IA-28]
< 35 | Cc1ccc(O)c(-c2cc(-c3ccccc3O)n[nH]2)c1 [IA-34]
35 to 75 | Cc1cc(O)c(-c2cc(-c3ccccc3)n[nH]2)cc1C [IA-36]
35 to 75 | CSc1ncccc1-c1cc(-c2ccccc2O)n[nH]1 [IA-37]
35 to 75 | COc1cccc(-c2n[nH]c(-c3ccccc3O)c2OC)c1 [IA-38]

Emax [%] | Structure (SMILES)
35 to 75 | CC(=O)Nc1cccc(-c2cc(-c3cc(C)ccc3O)[nH]n2)c1 [IA-40]
35 to 75 | Cc1ccc(O)c(-c2cc(-c3ccccc3C(F)(F)F)n[nH]2)c1 [IA-41]
> 75 | Cc1ccc(O)c(-c2cc(-c3cc(C(F)(F)F)oc3C)n[nH]2)c1 [IA-42]
35 to 75 | Cc1ccc(O)c(-c2cc(-c3ccc(F)c(F)c3)n[nH]2)c1 [IA-44]
> 75 | Cc1ccc(O)c(-c2cc(-c3ccccc3OC(F)(F)F)n[nH]2)c1 [IA-45]
< 35 | Cc1ccc(O)c(-c2cc(-c3ccccc3Cl)[nH]n2)c1 [IA-48]
35 to 75 | Cc1ccc(O)c(-c2cc(-c3cc(C(C)(C)C)oc3C)n[nH]2)c1 [IA-50]
> 75 | O=[N+]([O-])c1ccccc1-c1cc(-c2cc(Cl)ccc2O)n[nH]1 [IA-52]
35 to 75 | Oc1ccc(-c2nnn[nH]2)cc1-c1cc(-c2ccccc2)n[nH]1 [IA-54]
< 35 | Cc1ccc(-c2cc(-c3ccc(F)cc3)[nH]n2)c(O)c1 [IA-63]
35 to 75 | COc1cccc(-c2cc(-c3cc(C)ccc3O)[nH]n2)c1 [IA-66]
35 to 75 | Oc1cc(F)ccc1-c1cc(-c2ccccc2)[nH]n1 [IA-70]
35 to 75 | Cc1ccc(O)c(-c2cc(C3CCCCC3)n[nH]2)c1 [IA-71]
35 to 75 | COc1ccc(-c2cc(-c3cc(C)ccc3O)[nH]n2)cc1C(F)(F)F [IA-72]
35 to 75 | COc1ccc(O)c(-c2cc(-c3cccnc3Oc3ccccc3)[nH]n2)c1 [IA-77]
35 to 75 | Oc1ccccc1-c1cc(-c2c(F)cccc2F)n[nH]1 [IA-78]
< 35 | Cc1ccc(O)c(-c2cc(-c3ccccc3SC(F)F)n[nH]2)c1 [IA-79]
35 to 75 | Oc1ccccc1-c1cc(-c2cccc(F)c2)[nH]n1 [IA-81]
35 to 75 | Cc1ccc(-c2cc(-c3ccc(C)cc3O)n[nH]2)cc1 [IA-82]
35 to 75 | Cc1cc(C)c(-c2cc(-c3cc(C)ccc3O)[nH]n2)c(C)c1 [IA-85]
35 to 75 | Cc1ccc(O)c(-c2cc(-c3cccnc3Sc3ccc(Cl)cc3)n[nH]2)c1 [IA-86]
35 to 75 | Cc1ccc(O)c(-c2cc(-c3cc(Cl)ccc3C(F)(F)F)n[nH]2)c1 [IA-89]
35 to 75 | Oc1ccc(Cl)cc1-c1cc(-c2ccc(C(F)(F)F)cc2)[nH]n1 [IA-90]
35 to 75 | Cc1ccc(O)c(-c2cc(C(Cc3ccccc3)NS(=O)(=O)c3cccc4ccccc34)n[nH]2)c1 (centres unmarked) [IA-91]

From patent US20120184583A1, “MODULATORS OF ATP-BINDING CASSETTE TRANSPORTERS” (VERTEX PHARMACEUTICALS INCORPORATED, priority 2003, published 2012)
